{"source": "ChEMBL document CHEMBL1201862", "about": "“PubChem BioAssay data set” (2004)", "key": {"Leucine aminopeptidase": {"biological_target": "T1, Leucine aminopeptidase (Plasmodium falciparum 3D7, UniProt Q8IL11)", "T1 sequence (Q8IL11 whole entry)": "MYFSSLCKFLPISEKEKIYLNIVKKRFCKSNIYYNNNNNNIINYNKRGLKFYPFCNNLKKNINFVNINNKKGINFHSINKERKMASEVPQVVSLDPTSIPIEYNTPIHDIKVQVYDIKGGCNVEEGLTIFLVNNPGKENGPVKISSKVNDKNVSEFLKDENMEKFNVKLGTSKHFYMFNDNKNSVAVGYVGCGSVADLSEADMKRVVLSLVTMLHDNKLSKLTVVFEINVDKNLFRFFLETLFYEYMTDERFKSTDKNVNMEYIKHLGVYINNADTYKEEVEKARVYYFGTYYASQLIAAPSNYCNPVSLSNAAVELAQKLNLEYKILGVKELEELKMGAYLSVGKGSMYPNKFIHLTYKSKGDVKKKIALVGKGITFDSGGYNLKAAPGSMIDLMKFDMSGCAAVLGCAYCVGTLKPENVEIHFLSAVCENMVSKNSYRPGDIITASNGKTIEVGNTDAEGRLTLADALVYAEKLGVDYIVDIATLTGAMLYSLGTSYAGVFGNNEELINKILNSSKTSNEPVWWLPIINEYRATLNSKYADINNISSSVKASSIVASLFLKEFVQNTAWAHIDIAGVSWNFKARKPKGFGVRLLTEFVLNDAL", "assay": "P. falciparum M17LAP inhibitors, primary screen, biochemical, fluorogenic H-Leu-NHMec substrate, 1536-well (AID 1619)", "format": "functional"}, "Aspartyl aminopeptidase": {"biological_target": "Aspartyl aminopeptidase (Plasmodium falciparum 3D7, UniProt Q8I2J3)", "sequence (Q8I2J3 whole entry)": "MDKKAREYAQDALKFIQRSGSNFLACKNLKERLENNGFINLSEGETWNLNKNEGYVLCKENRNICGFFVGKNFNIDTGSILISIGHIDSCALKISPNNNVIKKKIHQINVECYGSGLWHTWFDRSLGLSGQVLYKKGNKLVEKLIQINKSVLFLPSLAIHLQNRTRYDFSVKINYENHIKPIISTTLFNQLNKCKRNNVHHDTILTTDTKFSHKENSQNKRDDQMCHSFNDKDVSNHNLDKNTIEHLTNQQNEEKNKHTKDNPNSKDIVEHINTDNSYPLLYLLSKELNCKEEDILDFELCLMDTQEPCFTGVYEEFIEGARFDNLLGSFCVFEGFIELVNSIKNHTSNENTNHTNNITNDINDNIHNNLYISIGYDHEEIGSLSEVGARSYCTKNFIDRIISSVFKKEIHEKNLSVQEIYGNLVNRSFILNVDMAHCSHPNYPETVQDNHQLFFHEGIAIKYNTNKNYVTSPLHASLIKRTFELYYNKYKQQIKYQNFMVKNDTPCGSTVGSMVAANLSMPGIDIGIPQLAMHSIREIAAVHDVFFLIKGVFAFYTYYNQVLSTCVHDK", "assay": "Counterscreen for inhibitors of M1 and M17 aminopeptidases: QFRET-based biochemical high throughput dose response assay for inhibitors of the Plasmodium falciparum M18 Aspartyl Aminopeptidase (PFM18AAP). [Related PubChem assays: 1619 (Screening assay (M17LAP inhibitors).), 1445 (Screening assay (M1AAP inhibitors).)]"}, "Procathepsin L": {"biological_target": "Procathepsin L (Homo sapiens, UniProt P07711)", "sequence (P07711 whole entry)": "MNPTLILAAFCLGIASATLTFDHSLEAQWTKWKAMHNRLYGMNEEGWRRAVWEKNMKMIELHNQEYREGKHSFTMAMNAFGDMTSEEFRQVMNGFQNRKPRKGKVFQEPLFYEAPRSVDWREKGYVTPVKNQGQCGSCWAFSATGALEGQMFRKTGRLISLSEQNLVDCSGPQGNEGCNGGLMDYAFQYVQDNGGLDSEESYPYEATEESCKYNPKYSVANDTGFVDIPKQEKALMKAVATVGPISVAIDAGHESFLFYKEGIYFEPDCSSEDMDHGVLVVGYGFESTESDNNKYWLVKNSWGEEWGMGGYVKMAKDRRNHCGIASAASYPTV", "assay": "CTSL1 protease inhibition – biochemical, QFRET, 1536-well, counter-screen for M1/M17 aminopeptidase inhibitor project, dose response (AID 2214)"}, "[1]": {"biological_target": "T2, Replicative DNA helicase DnaB (Mycobacterium tuberculosis, UniProt P9WMR3)", "T2 sequence (P9WMR3 whole entry)": "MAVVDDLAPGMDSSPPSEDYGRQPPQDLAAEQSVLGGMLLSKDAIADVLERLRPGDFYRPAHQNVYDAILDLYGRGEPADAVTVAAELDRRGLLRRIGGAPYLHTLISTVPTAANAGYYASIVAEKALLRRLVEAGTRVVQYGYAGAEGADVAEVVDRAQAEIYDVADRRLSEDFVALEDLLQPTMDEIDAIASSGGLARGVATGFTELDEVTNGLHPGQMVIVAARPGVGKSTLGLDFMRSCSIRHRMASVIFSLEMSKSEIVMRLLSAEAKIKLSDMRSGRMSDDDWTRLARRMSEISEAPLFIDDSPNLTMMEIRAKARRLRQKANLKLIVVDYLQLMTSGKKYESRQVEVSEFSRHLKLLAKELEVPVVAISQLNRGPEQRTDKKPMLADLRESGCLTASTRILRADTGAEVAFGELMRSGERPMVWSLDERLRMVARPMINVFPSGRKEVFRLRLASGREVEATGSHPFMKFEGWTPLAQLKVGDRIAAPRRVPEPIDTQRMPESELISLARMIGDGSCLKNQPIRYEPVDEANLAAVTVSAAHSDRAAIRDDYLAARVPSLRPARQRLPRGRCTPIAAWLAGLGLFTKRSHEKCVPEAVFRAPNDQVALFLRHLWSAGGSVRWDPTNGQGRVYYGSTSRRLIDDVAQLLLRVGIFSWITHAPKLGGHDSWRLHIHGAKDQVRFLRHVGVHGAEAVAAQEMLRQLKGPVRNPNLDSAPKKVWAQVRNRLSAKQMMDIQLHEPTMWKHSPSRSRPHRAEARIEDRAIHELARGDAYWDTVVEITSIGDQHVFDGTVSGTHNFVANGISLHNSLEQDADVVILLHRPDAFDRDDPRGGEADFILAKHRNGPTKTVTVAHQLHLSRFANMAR", "assay": "DnaB intein splicing inhibitors, dose response, biochemical, cell-free fluorescence (AID 449749)", "format": "functional"}, "Protein RecA": {"biological_target": "T3, Protein RecA (Mycobacterium tuberculosis, UniProt P9WHJ3)", "T3 sequence (P9WHJ3 whole entry)": "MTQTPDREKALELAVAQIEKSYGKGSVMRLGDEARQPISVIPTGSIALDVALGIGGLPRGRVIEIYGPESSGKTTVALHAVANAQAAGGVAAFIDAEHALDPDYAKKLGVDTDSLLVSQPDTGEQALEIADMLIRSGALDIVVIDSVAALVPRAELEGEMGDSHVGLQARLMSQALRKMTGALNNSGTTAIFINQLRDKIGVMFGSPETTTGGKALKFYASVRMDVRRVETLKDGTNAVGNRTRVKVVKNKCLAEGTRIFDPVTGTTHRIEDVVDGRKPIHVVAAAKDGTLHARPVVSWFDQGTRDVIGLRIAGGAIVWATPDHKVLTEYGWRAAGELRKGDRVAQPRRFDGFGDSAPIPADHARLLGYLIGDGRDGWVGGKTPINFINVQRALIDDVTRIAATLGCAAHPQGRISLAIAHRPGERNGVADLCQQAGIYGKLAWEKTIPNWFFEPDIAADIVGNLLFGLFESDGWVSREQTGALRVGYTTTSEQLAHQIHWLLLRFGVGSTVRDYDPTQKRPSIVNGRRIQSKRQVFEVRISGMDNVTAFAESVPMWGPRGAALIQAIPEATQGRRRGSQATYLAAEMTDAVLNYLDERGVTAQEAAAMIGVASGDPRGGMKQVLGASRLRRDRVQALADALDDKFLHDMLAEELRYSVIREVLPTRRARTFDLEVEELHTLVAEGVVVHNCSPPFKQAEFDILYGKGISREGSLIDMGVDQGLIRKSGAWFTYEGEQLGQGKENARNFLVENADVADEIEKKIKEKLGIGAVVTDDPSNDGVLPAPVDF", "assay": "Fluorescence Cell-Free Homogeneous Dose Retest to Identify Inhibitors of RecA-Intein Splicing Activity. [Related pubchem assays (depositor defined):AID2097, AID2223, AID489010, AID492950]", "format": "functional"}, "[2]": {"assay": "NIH-3T3 fibroblast cytotoxicity, dose response, cytotoxicity control, cell-based, fluorescence, Alamar Blue, secondary assay (AID 2327);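 note: NIH-3T3 mouse fibroblasts cultured with fluconazole at 8 µg/mL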", "format": "functional"}, "[3]": {"assay": "fluconazole-exposed Candida albicans growth modulators – fluorescence, retest, confirmation (AID 2467)", "format": "functional, cell-based"}, "[4]": {"biological_target": "Induced myeloid leukemia cell differentiation protein Mcl-1 (Homo sapiens, UniProt Q07820)", "sequence (Q07820 whole entry)": "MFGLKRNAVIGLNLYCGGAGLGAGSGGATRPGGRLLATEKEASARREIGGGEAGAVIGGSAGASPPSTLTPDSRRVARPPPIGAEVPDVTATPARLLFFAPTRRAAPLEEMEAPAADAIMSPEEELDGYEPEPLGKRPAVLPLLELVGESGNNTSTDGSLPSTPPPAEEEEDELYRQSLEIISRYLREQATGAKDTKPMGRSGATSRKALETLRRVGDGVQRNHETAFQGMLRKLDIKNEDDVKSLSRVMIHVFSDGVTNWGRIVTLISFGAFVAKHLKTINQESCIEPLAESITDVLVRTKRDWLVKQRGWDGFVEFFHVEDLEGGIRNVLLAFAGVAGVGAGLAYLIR", "assay": "blockers of MCL1 binding to BIM peptide – biochemical, fluorescence polarization, BIM-BH3 peptide, 1536-well, dose response (AID 2217)"}, "Bcl-2-like protein 1": {"biological_target": "Bcl-2-like protein 1 (Homo sapiens, UniProt Q07817)", "sequence (Q07817 whole entry)": "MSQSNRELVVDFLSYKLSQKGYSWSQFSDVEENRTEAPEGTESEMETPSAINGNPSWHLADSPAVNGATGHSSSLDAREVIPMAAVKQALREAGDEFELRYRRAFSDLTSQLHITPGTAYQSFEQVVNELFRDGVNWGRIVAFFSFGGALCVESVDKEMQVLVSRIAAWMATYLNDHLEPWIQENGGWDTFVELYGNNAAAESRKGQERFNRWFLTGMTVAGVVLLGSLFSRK", "assay": "blockers of BCLXL peptide binding – biochemical, fluorescence polarization, 1536-well, selectivity assay for MCL1 inhibitor project, dose response (AID 2218)"}, "[5]": {"biological_target": "Potassium voltage-gated channel subfamily KQT member 2 (Rattus norvegicus, UniProt O88943, W236L)", "sequence (O88943 whole entry W236L)": "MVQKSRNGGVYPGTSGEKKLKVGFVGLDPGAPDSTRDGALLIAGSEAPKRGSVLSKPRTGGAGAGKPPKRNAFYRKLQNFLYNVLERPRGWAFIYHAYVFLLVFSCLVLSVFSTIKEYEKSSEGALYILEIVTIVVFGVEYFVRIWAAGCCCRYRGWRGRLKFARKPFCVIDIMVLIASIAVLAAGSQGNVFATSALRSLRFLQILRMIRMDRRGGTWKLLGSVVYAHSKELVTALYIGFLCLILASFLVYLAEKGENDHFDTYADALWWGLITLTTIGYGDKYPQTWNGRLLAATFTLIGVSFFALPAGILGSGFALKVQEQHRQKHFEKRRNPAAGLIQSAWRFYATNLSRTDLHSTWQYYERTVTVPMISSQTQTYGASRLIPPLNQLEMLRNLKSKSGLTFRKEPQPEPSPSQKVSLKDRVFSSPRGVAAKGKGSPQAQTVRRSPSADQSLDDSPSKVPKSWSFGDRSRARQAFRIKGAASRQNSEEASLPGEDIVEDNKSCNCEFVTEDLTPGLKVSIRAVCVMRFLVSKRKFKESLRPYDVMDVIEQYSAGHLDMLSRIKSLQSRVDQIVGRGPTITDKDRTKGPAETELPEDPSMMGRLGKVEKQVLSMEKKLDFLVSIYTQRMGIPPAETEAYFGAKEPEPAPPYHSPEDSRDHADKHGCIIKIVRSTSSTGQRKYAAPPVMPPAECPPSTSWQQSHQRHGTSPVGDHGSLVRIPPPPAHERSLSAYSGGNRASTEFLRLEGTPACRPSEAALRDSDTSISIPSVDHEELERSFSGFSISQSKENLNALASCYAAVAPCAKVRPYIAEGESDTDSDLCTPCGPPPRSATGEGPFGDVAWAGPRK", "assay": "potentiation of rat KCNQ2 current – cell-based, automated electrophysiology, mechanism study for KCNQ2 potentiator project, dose response (AID 2603)", "format": "functional"}, "Bcl-2-related protein A1": {"biological_target": "T4, Bcl-2-related protein A1 (Mus musculus, UniProt Q07440)", "T4 sequence (Q07440 whole entry)": "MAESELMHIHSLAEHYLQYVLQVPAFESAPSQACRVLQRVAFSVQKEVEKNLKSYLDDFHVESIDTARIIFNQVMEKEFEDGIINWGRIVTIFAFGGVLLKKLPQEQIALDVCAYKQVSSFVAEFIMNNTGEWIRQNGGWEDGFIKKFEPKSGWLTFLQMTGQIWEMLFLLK", "format": "functional"}, "[6]": {"biological_target": "T5, Ubiquitin-conjugating enzyme E2 N (Homo sapiens, UniProt P61088)", "T5 sequence (P61088 whole entry)": "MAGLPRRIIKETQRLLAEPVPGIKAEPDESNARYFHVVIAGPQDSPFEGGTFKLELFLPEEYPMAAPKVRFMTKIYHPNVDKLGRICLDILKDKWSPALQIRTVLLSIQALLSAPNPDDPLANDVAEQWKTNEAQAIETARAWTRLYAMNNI", "format": "functional"}, "[7]": {"biological_target": "T5, Ubiquitin-conjugating enzyme E2 N", "format": "functional", "remark": "listed apart in the source"}, "[8]": {"biological_target": "T6, High affinity choline transporter 1 (Homo sapiens, UniProt Q9GZV3)", "T6 sequence (Q9GZV3 whole entry)": "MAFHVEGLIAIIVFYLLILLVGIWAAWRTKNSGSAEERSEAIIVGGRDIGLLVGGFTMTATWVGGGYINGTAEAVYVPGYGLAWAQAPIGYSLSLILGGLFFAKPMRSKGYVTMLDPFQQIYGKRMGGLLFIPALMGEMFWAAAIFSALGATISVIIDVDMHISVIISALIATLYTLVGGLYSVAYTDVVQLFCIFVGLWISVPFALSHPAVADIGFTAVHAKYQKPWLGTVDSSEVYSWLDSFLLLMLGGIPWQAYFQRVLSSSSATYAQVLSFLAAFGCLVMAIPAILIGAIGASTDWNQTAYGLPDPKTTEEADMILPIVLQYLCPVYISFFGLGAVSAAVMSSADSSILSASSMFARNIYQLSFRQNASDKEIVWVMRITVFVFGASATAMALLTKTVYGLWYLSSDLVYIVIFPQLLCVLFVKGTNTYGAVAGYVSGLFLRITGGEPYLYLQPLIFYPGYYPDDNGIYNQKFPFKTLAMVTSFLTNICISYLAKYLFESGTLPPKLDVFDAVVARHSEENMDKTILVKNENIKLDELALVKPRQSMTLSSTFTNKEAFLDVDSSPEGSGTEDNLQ", "assay": "human choline transporter blockers, potency – cell-based, 5-point CRC, membrane potential dye, dose response (AID 504840)", "format": "functional"}, "Vero": {"tested_on": "Vero", "assay": "viability of Vero cells under compound – cytotoxicity control for flavivirus capping enzyme inhibitors (AID 588742)", "format": "functional", "details": "Chlorocebus sabaeus"}, "[9]": {"biological_target": "T6, High affinity choline transporter 1", "assay": "human choline transporter blockers, potency – cell-based, 10-point CRC, membrane potential dye, dose response (AID 588401);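 note: membrane potential dye fluorescence of choline-evoked depolarization via CHT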", "format": "functional"}, "Genome polyprotein": {"biological_target": "Genome polyprotein (dengue virus type 2, UniProt P29990)", "sequence (P29990 2492-3391 limits assumed)": "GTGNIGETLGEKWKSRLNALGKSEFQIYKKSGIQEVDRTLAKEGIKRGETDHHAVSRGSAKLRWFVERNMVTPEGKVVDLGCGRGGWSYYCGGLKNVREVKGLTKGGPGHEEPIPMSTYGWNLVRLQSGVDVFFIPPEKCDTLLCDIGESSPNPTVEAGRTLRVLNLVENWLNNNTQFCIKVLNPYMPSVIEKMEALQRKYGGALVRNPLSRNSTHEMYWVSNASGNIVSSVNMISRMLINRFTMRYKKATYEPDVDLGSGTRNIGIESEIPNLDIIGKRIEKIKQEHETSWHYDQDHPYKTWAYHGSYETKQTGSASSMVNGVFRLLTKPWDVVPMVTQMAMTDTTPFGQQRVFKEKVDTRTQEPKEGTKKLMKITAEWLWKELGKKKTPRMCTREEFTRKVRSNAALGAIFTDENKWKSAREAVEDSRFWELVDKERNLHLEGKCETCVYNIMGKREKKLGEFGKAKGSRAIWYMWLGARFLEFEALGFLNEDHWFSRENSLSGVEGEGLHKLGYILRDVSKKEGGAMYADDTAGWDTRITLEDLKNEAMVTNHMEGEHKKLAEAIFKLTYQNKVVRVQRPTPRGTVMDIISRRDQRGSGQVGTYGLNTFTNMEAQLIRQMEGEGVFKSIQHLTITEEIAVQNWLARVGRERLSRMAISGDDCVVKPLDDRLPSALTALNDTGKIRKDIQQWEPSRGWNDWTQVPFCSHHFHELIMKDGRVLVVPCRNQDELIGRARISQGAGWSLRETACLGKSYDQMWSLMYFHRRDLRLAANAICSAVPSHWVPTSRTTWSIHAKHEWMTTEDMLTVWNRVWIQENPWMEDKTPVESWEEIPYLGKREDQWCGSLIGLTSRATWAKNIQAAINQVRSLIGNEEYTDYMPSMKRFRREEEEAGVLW", "assay": "flavivirus cap methylation enzyme inhibition – biochemical, confirmation dose response, primary screen (AID 588689)", "format": "functional"}, "[10]": {"assay": "reduction of Shn3 3'UTR-driven luciferase in osteoblasts – cell-based, Clone20 osteoblasts, firefly luciferase, cherry-picked, dose response (AID 624132);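 note: firefly luciferase luminescence from reporter carrying the Shn3 3'UTR in osteoblasts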", "format": "functional"}, "[11]": {"assay": "non-specific 3'UTR reporter inhibition in Clone20-Shn3RL – cell-based, Renilla luciferase, cherry-picked, counter-screen for Shn3 inhibitor project, dose response (AID 624133)", "format": "functional"}, "[12]": {"assay": "Shn3 transcript knock-down in Clone20 cells – cell-based, qPCR, cherry-pick, dose response (AID 743415)", "format": "functional"}, "[13]": {"assay": "Shn3 3'UTR reporter signal decrease – cell-based, Clone20 osteoblasts, firefly luciferase, cherry-pick, set 2, Schnurri-3 inhibitor project, dose response (AID 720490);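 note: actives lower the luminescence signal as inhibitors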", "format": "functional"}, "[14]": {"assay": "EF1alpha-driven Renilla reporter with control 3'UTR suppression – Clone20-Shn3RL cells, dual-Glo, cherry-pick, set 2, counter-screen for Shn3 3'UTR targeting project, dose response (AID 720724)", "format": "functional, cell-based", "details": "Dual-Go Shn3RL"}}, "note": "The source made the active and inactive calls.", "data": [{"smiles": "CCOc1cccc(-c2cc(O)[nH]n2)c1", "values": [{"measurement": "IC50", "setting": "Leucine aminopeptidase", "value": "1.25 µM (active)"}, {"measurement": "IC50", "setting": "Aspartyl aminopeptidase", "value": "> 73.5 µM (not active)"}, {"measurement": "IC50", "setting": "Procathepsin L", "value": "> 59.6 µM (not active)"}, {"measurement": "AC50", "setting": "[1]", "value": "2.18 µM (active)"}, {"measurement": "EC50", "setting": "Protein RecA", "value": "0.695 µM (active)"}]}, {"smiles": "CC12CCC(C(=O)N(NC(=O)c3ccccc3O)C1=O)C2(C)C", "note": "(centres undefined)", "values": [{"measurement": "EC50", "setting": "[2]", "value": "> 160 µM (inactive)"}, {"measurement": "EC50", "setting": "[3]", "value": "> 38 µM (not active)"}, {"measurement": "IC50", "setting": "[4]", "value": "> 109 µM (not active)"}, {"measurement": "IC50", "setting": "Bcl-2-like protein 1", "value": "> 109 µM (not active)"}]}, {"smiles": "CCCc1nnc(NC(=O)c2nc(S(=O)(=O)Cc3ccc(C)cc3)ncc2Cl)s1", "values": [{"measurement": "EC50", "setting": "[5]", "value": "3.02 µM (active)"}, {"measurement": "IC50", "setting": "Bcl-2-related protein A1", "value": "> 20 µM (inactive)"}, {"measurement": "IC50", "setting": "[6]", "value": "10.5 µM (active)"}, {"measurement": "IC50", "setting": "[7]", "value": "14.8 µM (active)"}, {"measurement": "AC50", "setting": "[1]", "value": "> 380 µM (inactive)"}, {"measurement": "IC50", "setting": "[8]", "value": "2.59 µM (active)"}, {"measurement": "CC50", "setting": "Vero", "value": "> 40 µM (active)"}, {"measurement": "EC50", "setting": "Protein RecA", "value": "86.7 µM (active)"}, {"measurement": "IC50", "setting": "[9]", "value": "3.36 µM (active)"}, {"measurement": "IC50", "setting": "Genome polyprotein", "value": "> 100 µM (active)"}, {"measurement": "AC50", "setting": "[10]", "value": "0.538 µM (active)"}, {"measurement": "AC50", "setting": "[11]", "value": "12.5 µM (active)"}, {"measurement": "AC50", "setting": "[12]", "value": "13.4 µM (active)"}, {"measurement": "AC50", "setting": "[13]", "value": "2.05 µM (active)"}, {"measurement": "AC50", "setting": "[14]", "value": "40.7 µM (active)"}]}]}
